In patent US4371545A, “Isopropyl amine compounds” (Dolorgiet Beteiligungs GmbH, priority 1978, dated 1983):

How the values were obtained:
[1] = system: heart beat frequency in resting position; test: Effect on heart beat frequency in resting position in anaesthetized cats; format: in vivo, cat; settings: for HR norm (bradycardial effect, heart beat frequency in resting position): anaesthetized cats, i.v., qualitative, 10 to 100 ug/kg
Description: (§1) To provide an informative determination of the ED50 of the test preparation on isoprenalin-induced tachycardia of anaesthetized cats as well as qualitative determination of the characteristic effect of the preparation on blood pressure and heart beat frequency in resting position.
(§2) Anaesthetic: hexobarbital (Evipan-Na),
(§3) tromanometer; heart frequency
(§4) by means of the pulse wave
(§5) interval, using an HSE-EKA
(§6) sphygmograph or HSE frequency
(§7) The remaining data in the table refer to the characteristic effect of the test preparation on the heart beat frequency in resting position, arterial blood pressure in resting position, and reduction of isoprenalin-induced drop in blood pressure; the respective data are more of qualitative nature.

[2] = Acute toxicity (Litchfield and Wilcoxon); settings: in vivo
Description: The acute toxicity of the inventive compound is determined by the method of Litchfield and Wilcoxon (J. Pharmacol. exp. Therap., 96 (1949), 99).

[3] = system: isoprenalin-induced tachycardia; test: Inhibition of isoprenalin-induced tachycardia in anaesthetized cats; format: in vivo, cat; settings: for ED50: Felis catus, iv, graphic extrapolation on dose-effect curve, read-out: ED50 (reduction of isoprenalin-induced tachycardia by 50%)
Description: A comparative screening test was conducted on anaestetized cats suffering from isoprenalin-induced tachycardia.
as §1
3.2 Test animals: male and female cats,
weighing 1.6 to 3.2 kg, un-
as §2
Respiration: spontaneous after tracheo-
femoralis for injection of
the test preparations; ca-
(§8) theterization of A. femo-
(§9) ralis for measuring arterial
(§10) blood pressure; blood coagu-
sodium heparinate, 600 units
(§11) phase and mean blood press-
(§12) ure, using a Statham press-
(§13) ure gauge and an HSE elec-
as §3, §4, §5, §6
3.3.2 Administration of the
Isoprenalin: i.v. injection; dose 0.3 to
1 μg/kg; volume administer-
ed: 0.1 ml/kg; intervals bet-
ween injections; 10 min.
i.v. injections, each 4 min.
prior to the next isoprenalin
injection; dosage range: 10
to 100 μg/kg and, respect.,
injection time: 10 sec.
3.3.3 Criteria determining
percentage reduction in iso-
prenalin-induced tachycardia;
measured at maximum efficien-
cy (4 min. after injection).
ED50 is determined by graph-
ic extrapolation on the
curves showing the effect-
iveness of the dose admini-
stered. ED50 means the dose
(μg/kg i.v.) required for
reducing tachycardia by
50% as compared to the ori-
Table 1 informs on the results of the above experiments. The quantitative criteria in this table are: reduction of isoprenalin-induced tachycardia in percent; ED50 determined by graphic extrapolation on the curve showing the effectiveness of the respective dose; and relative activity which may be calculated as quotient from the ED50 (μg/kg) of propranolol and the ED50 of the test preparation.

[4] = system: isoprenalin-induced drop in arterial blood pressure; test: Reduction of isoprenalin-induced drop in arterial blood pressure in anaesthetized cats; format: in vivo, cat; settings: for m BP Isopr. (reduction in mean, isoprenalin-induced drop in arterial blood pressure): i.v., qualitative, 10 to 100 ug/kg; for isoprenalin-induced drop in arterial blood pressure: summary in words
β-adrenergic = β-adrenergic blocking activity in mammals; format: in vivo; settings: mammals such as mice, rats and cats
Description: It is also to be expected that the above compound will have similar effects when administered to humans.

[5] = system: mean arterial blood pressure in resting position; test: Effect on mean arterial blood pressure in resting position in anaesthetized cats; format: in vivo, cat; settings: i.v., qualitative, 10 to 100 ug/kg
Description: as §1, §2, §8, §9, §10, §11, §12, §13, §3, §7

Cc1ccc([N+](=O)[O-])c(OCC(O)CNC(C)C)c1.Cl (centres unmarked) [Compound of the invention, 1-(5-methyl-2-nitrophenoxy)-2-hydroxy-3-isopropylaminopropane-hydrochloride]
HR norm (bradycardial effect, heart beat frequency in resting position) [1]: + - +++ and d.d. | reduction of frequency of heart beat in resting position ([1]; depending on the original position and the dose administered): effectively reduced | LD50 ([2]; ip, mouse, female and male, in each case 10 female and male mice): 250 mg/kg | LD50 ([2]; iv, mouse, female and male, in each case 10 female and male mice): 105 mg/kg | LD50 ([2]; po, mouse, female and male, in each case 10 female and male mice): 1280 mg/kg | LD50 ([2]; rat, ip, female and male): 192 mg/kg | LD50 ([2]; rat, iv, female): 68.9 mg/kg | LD50 ([2]; rat, iv, male): 80 mg/kg | LD50 ([2]; rat, po, female and male): 1120 mg/kg | ED50 ([3]; anaesthetized cats): 0.021 mg/kg | Rel. Activity (ED50 of propranolol / ED50 of test preparation) ([3]; based on ED50 of propranolol (=1)): 2.3 | beta-blocking activity in the tests on isoprenalin-induced tachycardia ([3]; compared to propranolol, anaesthetized cats): good beta-blocking activity | m BP Isopr. (reduction in mean, isoprenalin-induced drop in arterial blood pressure) [4]: + - +++R and d.d. | isoprenalin-induced drop in arterial blood pressure [4]: reliably reduced and blocked | β-adrenergic blocking activity (β-adrenergic): demonstrated

CC(C)NCC(O)COc1cccc2ccccc12 (centres unmarked) [Propranolol, reference compound]
HR norm (bradycardial effect, heart beat frequency in resting position) [1]: + - +++ and d.d. | ED50 ([3]; anaesthetized cats): 0.048 mg/kg | m BP Isopr. (reduction in mean, isoprenalin-induced drop in arterial blood pressure) [4]: + - +++R and d.d. | isoprenalin-induced drop in arterial blood pressure [4]: reliably reduced and blocked | m BP norm (effectiveness in lowering blood pressure, mean arterial pressure in resting position) [5]: + - ++ and d.d.
